# Patent US20250304635A1, “BIRINAPANT POLYMORPH H” (Medivir AB, priority 2022, published 2025)
# What was measured:
# Type in all cases: physicochemical
# [1] = Stability study: material left open to air at room temperature and exposed to light for one month (HPLC, Karl Fischer); details: room temperature, exposed to light
# Protocol: A stability study of birinapant form H was performed by leaving the material open to air at room temperature and exposed to light for one month. […] A stability study of birinapant form H was performed by leaving the material open to air at room temperature and exposed to light for one month.
# [2] = Stability studies under elevated temperature and relative humidity; crystalline form by XRPD, birefringence by polarized light microscopy
# Protocol: XRPD patterns were collected with a PANalytical Empyrean diffractometer using an incident beam of Cu radiation produced using a long, fine-focus source. An elliptically graded multilayer mirror was used to focus Cu Kα X-rays through the specimen and onto the detector. Prior to analysis, a silicon specimen (NIST SRM 640e) was analyzed to verify the observed position of the Si 111 peak is consistent with the NIST-certified position. A specimen of the sample was sandwiched between 3-μm-thick films and analyzed in transmission geometry. A beam-stop, short antiscatter extension, and antiscatter knife edge were used to minimize the background generated by air. Soller slits for the incident and diffracted beams were used to minimize broadening and asymmetry from axial divergence. Diffraction patterns were collected using a scanning position-sensitive detector (X′Celerator) located 240 mm from the specimen and Data Collector software v. 5.5. Additional stability studies under elevated temperature and relative humidity (RH) conditions were also performed. Samples of birinapant form H were subjected to various temperature and humidity conditions for up to 105 days, and samples were taken at 17, 33, and 105 days. For each sample the identity of the crystalline form of the sample was assessed using XRPD and the birefringence of the sample was assessed using polarized light microscopy. Additionally, XRPD patterns for several time points are provided for the 60° C. study, the 30° C./62% RH study, and the 40° C./75% RH study in FIGS. 6, 7, and 8, respectively. The time points shown are at the start of the study (top pattern), after 17 days (pattern second from top), after 33 days (pattern third from top), and after 105 days (bottom pattern). Additional stability studies under elevated temperature and relative humidity (RH) conditions were also performed. Samples of birinapant form H were subjected to various temperature and humidity conditions for up to 182 days, and samples were taken at […]. For each sample the identity of the crystalline form of the sample was assessed using XRPD and the birefringence of the sample was assessed using polarized light microscopy. The “RESULT” column indicates the form that was observed. Additionally, XRPD patterns for several time points are provided for the 60° C. study, the 30° C./62% RH study, and the 40° C./75% RH study in FIG. 9. The spectra shown in FIG. 9 correspond to the 60° C. study after 33 days (top trace), the 60° C. study after 182 days (trace second from top), the 30° C./62% RH study after 33 days (trace third from top), the 30° C./62% RH study after 182 days (trace fourth from top), the 40° C./75% RH study after 33 days (trace fifth from top), and the 40° C./75% RH study after 182 days (trace sixth from top). A representative XRPD trace for birinapant form H prior to stressing is also shown for comparison (bottom trace).
# TGA study = details: between about 25° C. and 300° C.
# Protocol: TGA analysis was performed using a Mettler-Toledo TGA/DSC3 analyzer. Temperature and enthalpy adjustments were performed using indium, tin, and zinc, and then verified with indium. The balance was verified with calcium oxalate. The sample was placed in an open aluminum pan. The pan was hermetically sealed, the lid pierced, and then inserted into the TG furnace. A weighed aluminum pan configured as the sample pan was placed on the reference platform. The furnace was heated under nitrogen. Each sample was heated from ambient temperature to 350° C. at 10° C./min. The thermograms were plotted by reference temperature (x-axis) and results were reported according to sample temperatures. Briefly, a sample of biripant Form H was heated from about 25° C. to about 400° C. […] Between about 340° C. and 400° C., weight loss was observed, corresponding to the thermal decomposition of birinapant.
# [3] = Stability studies under elevated temperature and relative humidity; crystalline form by XRPD, birefringence by polarized light microscopy; remark: listed apart in the source
# [4] = Dynamic vapor sorption (DVS) study; design: Hysteresis: unit not given here; details: 25° C.
# Protocol: Automated vapor sorption (VS) data were collected on a Surface Measurement System DVS Intrinsic instrument. Samples were not dried prior to analysis. Sorption and desorption data were collected over a range from 5% to 95% RH at 10% RH increments under a nitrogen purge. The equilibrium criterion used for analysis was less than 0.0100% weight change in 5 minutes with a maximum equilibration time of 3 hours. Data were not corrected for the initial moisture content of the samples. This study was performed at a temperature of 25° C., and the relative humidity was cycled between about 5% and about 95%.
# [5] = target RH 95.0%, sample RH 95.7%
smiles,measurement,setting,value
"CC[C@H](NC(=O)[C@H](C)NC)C(=O)N1C[C@@H](O)C[C@H]1Cc1c(-c2[nH]c3cc(F)ccc3c2C[C@@H]2C[C@H](O)CN2C(=O)[C@H](CC)NC(=O)[C@H](C)NC)[nH]c2cc(F)ccc12 [birinapant Form H, (2S,2'S)—N,N′-((2S,2'S)-((3S,3'S,5R,5′R)-((6,6′-difluoro-1H,1′H-[2,2′-biindole]-3,3′-diyl)bis(methylene))bis(3-hydroxypyrrolidine-5,1-diyl))bis(1-oxobutane-1,2-diyl))bis(2-(methylamino)propanamide)]",appearance of the surface of the solid,[1],discolored slightly
same,purity of birinapant by HPLC after storage,[1],99.9%
same,Observation,"[2]; 30° C., 62% RH, 17 d, B = birefringence","fines, B"
same,Observation,"[2]; 30° C., 62% RH, 105 d, B = birefringence","white fines, B"
same,Observation,"[2]; 40° C., 75% RH, 17 d, B = birefringence","fines, B"
same,Observation,"[2]; 40° C., 75% RH, 33 d",white solids
same,Observation,"[2]; 40° C., 75% RH, 105 d, B = birefringence","white fines, B"
same,Observation,"[2]; 60° C., 17 d, B = birefringence","fines, B"
same,Observation,"[2]; 60° C., 33 d",white to off-white in color
same,Observation,"[2]; 60° C., 105 d",off-white
same,Observation,"[2]; 80° C., 17 d, B = birefringence","fines, B sample faint pale yellow"
same,Observation,"[2]; 80° C., 33 d",pale yellow in color
same,Observation,"[2]; RT, 98% RH, 18 d, B = birefringence","fines, B sample faint pale yellow"
same,Observation,"[2]; Table 5: 30° C., 62% RH, 17 d, B = birefringence","fines, B"
same,Observation,"[2]; Table 5: 30° C., 62% RH, 105 d, B = birefringence","white fines, B"
same,Observation,"[2]; Table 5: 30° C., 62% RH, 182 d, power outage 1 hour on day 125",white solids^d
same,Observation,"[2]; Table 5: 40° C., 75% RH, 17 d, B = birefringence","fines, B"
same,Observation,"[2]; Table 5: 40° C., 75% RH, 33 d",white solids
same,Observation,"[2]; Table 5: 40° C., 75% RH, 105 d, B = birefringence","white fines, B"
same,Observation,"[2]; Table 5: 40° C., 75% RH, 182 d, power outage 1 hour on day 125",white solids^e
same,Observation,"[2]; Table 5: 60° C., 17 d, B = birefringence","fines, B"
same,Observation,"[2]; Table 5: 60° C., 33 d",white to off-white in color
same,Observation,"[2]; Table 5: 60° C., 105 d",off-white
same,Observation,"[2]; Table 5: 60° C., 182 d, temperature excursions: 105° C. 3 hours on day 113, power outage 1 hour on day 125",off-white to pale yellow^c
same,Observation,"[2]; Table 5: 80° C., 17 d, B = birefringence","fines, B sample faint pale yellow"
same,Observation,"[2]; Table 5: 80° C., 33 d",pale yellow in color
same,Observation,"[2]; Table 5: RT, 53% RH, 18 d, B = birefringence","fines, B sample faint pale yellow"
same,Observation,"[2]; Table 5: RT, 98% RH, 18 d, B = birefringence","fines, B sample faint pale yellow"
same,weight loss on heating (TGA),TGA study,No weight loss
same,Observation,"[3]; 245° C., 1 hr",light tan solids
same,Observation,"[3]; RT, 53% RH, 18 d, B = birefringence","fines, B sample faint pale yellow"
same,Observation,"[3]; Table 5: 245° C., 1 hr",light tan solids
same,Cycle 1 Sorp Mass Change,"[4]; target RH 5.0%, sample RH 5.1%",0.000%
same,Cycle 1 Desorp Mass Change,"[4]; target RH 5.0%, sample RH 5.5%",0.020%
same,Hysteresis,[4]; target RH 15.0%,0.192
same,Cycle 1 Sorp Mass Change,"[4]; target RH 15.0%, sample RH 15.6%",0.365%
same,Cycle 1 Desorp Mass Change,"[4]; target RH 15.0%, sample RH 16.1%",0.557%
same,Hysteresis,[4]; target RH 25.0%,0.197
same,Cycle 1 Sorp Mass Change,"[4]; target RH 25.0%, sample RH 25.1%",0.732%
same,Cycle 1 Desorp Mass Change,"[4]; target RH 25.0%, sample RH 25.6%",0.929%
same,Hysteresis,[4]; target RH 35.0%,0.237
same,Cycle 1 Sorp Mass Change,"[4]; target RH 35.0%, sample RH 34.7%",1.001%
same,Cycle 1 Desorp Mass Change,"[4]; target RH 35.0%, sample RH 35.3%",1.238%
same,Hysteresis,[4]; target RH 45.0%,0.308
same,Cycle 1 Sorp Mass Change,"[4]; target RH 45.0%, sample RH 45.0%",1.224%
same,Cycle 1 Desorp Mass Change,"[4]; target RH 45.0%, sample RH 45.6%",1.532%
same,Hysteresis,[4]; target RH 55.0%,0.379
same,Cycle 1 Sorp Mass Change,"[4]; target RH 55.0%, sample RH 54.7%",1.436%
same,Cycle 1 Desorp Mass Change,"[4]; target RH 55.0%, sample RH 55.4%",1.815%
same,Hysteresis,[4]; target RH 65.0%,0.425
same,Cycle 1 Sorp Mass Change,"[4]; target RH 65.0%, sample RH 64.7%",1.652%
same,Cycle 1 Desorp Mass Change,"[4]; target RH 65.0%, sample RH 65.5%",2.078%
same,Hysteresis,[4]; target RH 75.0%,0.428
same,Cycle 1 Sorp Mass Change,"[4]; target RH 75.0%, sample RH 74.7%",1.908%
same,Cycle 1 Desorp Mass Change,"[4]; target RH 75.0%, sample RH 75.3%",2.336%
same,Hysteresis,[4]; target RH 85.0%,0.347
same,Cycle 1 Sorp Mass Change,"[4]; target RH 85.0%, sample RH 84.9%",2.263%
same,Cycle 1 Desorp Mass Change,"[4]; target RH 85.0%, sample RH 86.0%",2.610%
same,Cycle 1 Desorp Mass Change,[4]; [5],2.904%
same,Cycle 1 Sorp Mass Change,[4]; [5],2.904%
